{"source": "ChEMBL document CHEMBL4130392", "about": "“Eugenol derived immunomodulatory molecules against visceral leishmaniasis” (Eur J Med Chem, 2017)", "key": {"[1]": {"tested_on": "Leishmania donovani", "assay": "Antileishmanial activity against Leishmania donovani MHOM/IN/AG/83 promastigotes after 48 hrs by MTT assay", "format": "functional, organism-based", "conditions": "MHOM/IN/AG/83, 48 h"}, "[2]": {"tested_on": "Leishmania donovani", "assay": "Antileishmanial activity against Leishmania donovani MHOM/IN/AG/83 amastigotes infected in BALB/c mouse peritoneal macrophages after 42 hrs by Giemsa staining-based microscopic analysis", "format": "functional, organism-based", "conditions": "MHOM/IN/AG/83, 42 h"}, "[3]": {"tested_on": "RAW264.7", "assay": "Cytotoxicity against mouse RAW264.7 cells after 48 hrs by MTT assay", "format": "cell-based", "conditions": "RAW264.7, 48 h"}, "[4]": {"tested_on": "Peritoneal macrophage", "assay": "Cytotoxicity against BALB/c mouse peritoneal macrophages after 48 hrs by MTT assay", "format": "cell-based"}, "[5]": {"assay": "Therapeutic index, ratio of IC50 for mouse RAW264.7 cells to IC50 for Leishmania donovani MHOM/IN/AG/83 promastigotes", "format": "toxicity", "conditions": "read-out: Ratio IC50"}, "[6]": {"assay": "Therapeutic index, ratio of EC50 for BALB/c mouse peritoneal macrophages to EC50 for Leishmania donovani MHOM/IN/AG/83 amastigotes", "format": "toxicity", "conditions": "read-out: Ratio EC50"}, "[7]": {"tested_on": "Peritoneal macrophage", "assay": "Induction of NO generation in Leishmania donovani MHOM/IN/AG/83 infected BALB/c mouse peritoneal macrophages assessed as nitrite levels after 48 hrs by Griess assay relative to untreated control", "format": "functional"}, "[8]": {"assay": "Drug uptake in mouse RAW264.7 cells assessed as retention time at 10 ug/ml incubated for 3 hrs by HPLC method", "format": "ADME, cell-based", "conditions": "raw264.7, 3 h"}, "[9]": {"assay": "Drug uptake in mouse RAW264.7 cells assessed as ratio of drug level (cell lysate)/(drug level (supernatant) + drug level (cell lysate) at 10 ug/ml incubated for 3 hrs by HPLC method", "format": "ADME, cell-based", "conditions": "raw264.7, 3 h"}, "[10]": {"tested_on": "Peritoneal macrophage", "assay": "Induction of innate immune response in Leishmania donovani MHOM/IN/AG/83 infected BALB/c mouse peritoneal macrophages assessed as increase in iNOS2 mRNA expression at 2.5 ug/ml incubated for 6 hrs by RT-PCR analysis relative to control", "format": "functional"}, "[11]": {"tested_on": "Peritoneal macrophage", "assay": "Induction of innate immune response in Leishmania donovani MHOM/IN/AG/83 infected BALB/c mouse peritoneal macrophages assessed as reduction in arginase 1 activity at 1 to 5 ug/ml incubated for 48 hrs using L-arginine and by spectrometry relative to control", "format": "functional"}, "[12]": {"tested_on": "Peritoneal macrophage", "assay": "Induction of innate immune response in Leishmania donovani MHOM/IN/AG/83 infected BALB/c mouse peritoneal macrophages assessed as upregulation of IL-12 levels at 2.5 ug/ml after 24 hrs by sandwich ELISA", "format": "functional"}, "[13]": {"tested_on": "Peritoneal macrophage", "assay": "Induction of innate immune response in Leishmania donovani MHOM/IN/AG/83 infected BALB/c mouse peritoneal macrophage assessed as downregulation of IL-10 levels at 2.5 ug/ml after 24 hrs by sandwich ELISA", "format": "functional"}, "[14]": {"tested_on": "Peritoneal macrophage", "assay": "Induction of innate immune response in Leishmania donovani MHOM/IN/AG/83 infected BALB/c mouse peritoneal macrophages assessed as upregulation of IL-12 mRNA expression at 2.5 ug/ml after 6 hrs by RT-PCR analysis", "format": "functional, cell-based"}, "[15]": {"tested_on": "Peritoneal macrophage", "assay": "Induction of innate immune response in Leishmania donovani MHOM/IN/AG/83 infected BALB/c mouse peritoneal macrophages assessed as downregulation of IL-10 mRNA expression at 2.5 ug/ml after 6 hrs by RT-PCR analysis", "format": "functional, cell-based"}, "[16]": {"tested_on": "Leishmania donovani", "assay": "Antileishmanial activity against Leishmania donovani MHOM/IN/AG/83 promastigotes infected in BALB/c mouse assessed as reduction of parasite burden in liver at 10 mg/kg, iv administered starting 2 weeks of post infection with five days interval between each treatment and measured after 28 days of treatment by Giemsa staining-based assay", "format": "functional", "parameters": "scale not given: the % may be the effect or the level left"}, "[17]": {"tested_on": "Leishmania donovani", "assay": "Antileishmanial activity against Leishmania donovani MHOM/IN/AG/83 promastigotes infected in BALB/c mouse assessed as reduction of parasite burden in liver at 25 mg/kg, iv administered starting 2 weeks of post infection with five days interval between each treatment and measured after 28 days of treatment by Giemsa staining-based assay", "format": "functional", "parameters": "scale not given: the % may be the effect or the level left"}, "[18]": {"tested_on": "Leishmania donovani", "assay": "Antileishmanial activity against Leishmania donovani MHOM/IN/AG/83 promastigotes infected in BALB/c mouse assessed as reduction of parasite burden in spleen at 10 mg/kg, iv administered starting 2 weeks of post infection with five days interval between each treatment and measured after 28 days of treatment by Giemsa staining-based assay", "format": "functional", "parameters": "scale not given: the % may be the effect or the level left"}, "[19]": {"tested_on": "Leishmania donovani", "assay": "Antileishmanial activity against Leishmania donovani MHOM/IN/AG/83 promastigotes infected in BALB/c mouse assessed as reduction of parasite burden in spleen at 25 mg/kg, iv administered starting 2 weeks of post infection with five days interval between each treatment and measured after 28 days of treatment by Giemsa staining-based assay", "format": "functional", "parameters": "scale not given: the % may be the effect or the level left"}, "[20]": {"species_on_record": "Mus musculus", "assay": "Induction of innate immune response in splenocytes derived from compound treated BALB/c mouse infected with Leishmania donovani MHOM/IN/AG/83 by Griess assay", "format": "functional"}, "[21]": {"species_on_record": "Mus musculus", "assay": "Induction of innate immune response in splenocytes derived from compound treated BALB/c mouse infected with Leishmania donovani MHOM/IN/AG/83 assessed as increase in iNOS2 mRNA expression by RT-PCR analysis", "format": "functional"}, "[22]": {"species_on_record": "Mus musculus", "assay": "Induction of innate immune response in splenocytes derived from compound treated BALB/c mouse infected with Leishmania donovani MHOM/IN/AG/83 assessed as reduction in arginase-1 activity using L-arginine by spectrometry relative to control", "format": "functional"}, "[23]": {"species_on_record": "Mus musculus", "assay": "Induction of innate immune response in splenocytes derived from compound treated BALB/c mouse infected with Leishmania donovani MHOM/IN/AG/83 assessed as upregulation of IL-12 mRNA expression by RT-PCR analysis", "format": "functional, organism-based"}, "[24]": {"species_on_record": "Mus musculus", "assay": "Induction of innate immune response in splenocytes derived from compound treated BALB/c mouse infected with Leishmania donovani MHOM/IN/AG/83 assessed as downregulation of IL-10 mRNA expression by RT-PCR analysis", "format": "functional, organism-based"}, "[25]": {"species_on_record": "Mus musculus", "assay": "Induction of innate immune response in splenocytes derived from compound treated BALB/c mouse infected with Leishmania donovani MHOM/IN/AG/83 assessed as upregulation of IFNgamma mRNA expression levels by RT-PCR analysis", "format": "functional, organism-based"}, "[26]": {"assay": "Ratio of therapeutic index of test compound to Amphotericin B by measuring ratio of IC50 for BALB/c mouse peritoneal macrophages to IC50 for Leishmania donovani MHOM/IN/AG/83 amastigotes", "format": "toxicity"}, "[27]": {"assay": "Ratio of therapeutic index of test compound to Miltefosine by measuring ratio of IC50 for BALB/c mouse peritoneal macrophages to IC50 for Leishmania donovani MHOM/IN/AG/83 amastigotes", "format": "toxicity"}, "[28]": {"assay": "Binding affinity to plasma membrane of mouse RAW264.7 cells at 10 uM using compound with fluorophoric moiety attached via carbamate linkage by fluorescence microscopy", "format": "ADME, cell-based", "conditions": "raw264.7, 10 µM"}, "[29]": {"tested_on": "Peritoneal macrophage", "assay": "Induction of NO generation in Leishmania donovani MHOM/IN/AG/83 infected BALB/c mouse peritoneal macrophages assessed as increase in nitrite levels at 1 ug/ml after 48 hrs by Griess assay relative to untreated control", "format": "functional"}, "[30]": {"tested_on": "Peritoneal macrophage", "assay": "Induction of NO generation in Leishmania donovani MHOM/IN/AG/83 infected BALB/c mouse peritoneal macrophages assessed as increase in nitrite levels at 2.5 ug/ml after 48 hrs by Griess assay relative to untreated control", "format": "functional"}, "[31]": {"tested_on": "Peritoneal macrophage", "assay": "Induction of NO generation in Leishmania donovani MHOM/IN/AG/83 infected BALB/c mouse peritoneal macrophages assessed as increase in nitrite levels at 5 ug/ml after 48 hrs by Griess assay relative to untreated control", "format": "functional"}, "[32]": {"species_on_record": "Mus musculus", "assay": "Induction of innate immune response in splenocytes derived from compound treated BALB/c mouse infected with Leishmania donovani MHOM/IN/AG/83 assessed as reduction in arginase-1 expression by RT-PCR analysis relative to untreated control", "format": "functional"}, "[33]": {"species_on_record": "Mus musculus", "assay": "Induction of innate immune response in splenocytes derived from compound treated BALB/c mouse infected with Leishmania donovani MHOM/IN/AG/83 assessed as upregulation of IL-12 protein expression by sandwich ELISA", "format": "functional, organism-based"}, "[34]": {"species_on_record": "Mus musculus", "assay": "Induction of innate immune response in splenocytes derived from compound treated BALB/c mouse infected with Leishmania donovani MHOM/IN/AG/83 assessed as downregulation of IL-10 protein expression by sandwich ELISA", "format": "functional, organism-based"}, "[35]": {"species_on_record": "Mus musculus", "assay": "Induction of innate immune response in splenocytes derived from compound treated BALB/c mouse infected with Leishmania donovani MHOM/IN/AG/83 assessed as upregulation of IFNgamma protein expression levels by sandwich ELISA", "format": "functional, organism-based"}}, "note": "The source made the active and inactive calls. No cut-off for these calls is given here."}
{"smiles": "C=CCc1ccc(OC(=O)CCCCCCCCCCCCCCCCC)c(OC)c1", "values": [{"measurement": "IC50", "setting": "[1]", "value": 20.1, "unit": "µM"}, {"measurement": "EC50", "setting": "[2]", "value": 4.25, "unit": "µM"}, {"measurement": "IC50", "setting": "[3]", "value": 305, "unit": "µM"}, {"measurement": "EC50", "setting": "[4]", "value": 346, "unit": "µM"}, {"measurement": "selectivity ratio", "setting": "[5]", "value": 15.2}, {"measurement": "selectivity ratio", "setting": "[6]", "value": 82.2}, {"measurement": "Activity", "setting": "[7]", "value": "Dose-dependent effect"}, {"measurement": "Activity", "setting": "[7]; record 2", "value": 38.83, "unit": "µM"}, {"measurement": "Retention_time", "setting": "[8]", "value": 3.173, "unit": "min"}, {"measurement": "Ratio", "setting": "[9]", "value": 0.62}, {"measurement": "fold change (FC)", "setting": "[10]", "value": 8}, {"measurement": "fold change (FC)", "setting": "[11]", "value": 4}, {"measurement": "fold change (FC)", "setting": "[12]", "value": 5}, {"measurement": "fold change (FC)", "setting": "[13]", "value": 3}, {"measurement": "Activity", "setting": "[14]", "value": "Active"}, {"measurement": "Activity", "setting": "[15]", "value": "Active"}, {"measurement": "Activity", "setting": "[16]", "value": 81, "unit": "%"}, {"measurement": "Activity", "setting": "[17]", "value": 92, "unit": "%"}, {"measurement": "Activity", "setting": "[18]", "value": 72, "unit": "%"}, {"measurement": "Activity", "setting": "[19]", "value": 87, "unit": "%"}, {"measurement": "fold change (FC)", "setting": "[20]", "value": 8}, {"measurement": "fold change (FC)", "setting": "[21]", "value": 8}, {"measurement": "fold change (FC)", "setting": "[22]", "value": 4}, {"measurement": "Activity", "setting": "[23]", "value": "Active"}, {"measurement": "Activity", "setting": "[24]", "value": "Active"}, {"measurement": "Activity", "setting": "[25]", "value": "Active"}, {"measurement": "Ratio", "setting": "[26]", "value": "10 to 13"}, {"measurement": "Ratio", "setting": "[27]", "value": "10 to 13"}, {"measurement": "Activity", "setting": "[28]", "value": "Active"}, {"measurement": "fold change (FC)", "setting": "[29]", "value": 3}, {"measurement": "fold change (FC)", "setting": "[30]", "value": 7}, {"measurement": "fold change (FC)", "setting": "[31]", "value": 8}, {"measurement": "fold change (FC)", "setting": "[32]", "value": 4}, {"measurement": "Activity", "setting": "[33]", "value": "Active"}, {"measurement": "Activity", "setting": "[34]", "value": "Active"}, {"measurement": "Activity", "setting": "[35]", "value": "Active"}]}
